Earlier results in patent US5175181A, “Imidazolyl/imidazolylalkyl-N-terminal amino hydroxy” (G. D. Searle & Co., priority 1991, dated 1992).
Square brackets hold non-standard residues; d marks the D form. Peptide text beside a SMILES is read from it. * marks the point of attachment. Sta = CC(C)C[C@H](N)[C@@H](O)CC(=O)O; Isovaleryl = CC(C)CC(=O)*

Legend:
hog renin = conditions: after injection of hog renin into nephrectomized rats; Gross et al, Science 1971
[1] = tested on: aspartyl proteases such as pepsin, cathepsin D and renin; conditions: Umezawa et al, J. Antibiot. 1970

CC(C)CC(=O)N[C@H](C(=O)N[C@H](C(=O)N[C@@H](CC(C)C)[C@@H](O)CC(=O)N[C@@H](C)C(=O)N[C@@H](CC(C)C)[C@@H](O)CC(=O)O)C(C)C)C(C)C [pepstatin] (Isovaleryl-VV[Sta]A[Sta]-OH)
blood pressure in vivo (hog renin): reduce blood pressure | inhibition of aspartyl proteases [1]: inhibitor of aspartyl proteases
